In patent US11549123B2, “Plant EPSP synthases and methods of use” (PIONEER HI-BRED INTERNATIONAL, INC., priority 2015, dated 2023):

Target: T1, Helianthus annuus EPSPS, native, SEQ ID NO:9 (Helianthus annuus, UniProt A0A251S0N3)
T1 sequence (A0A251S0N3 67-518): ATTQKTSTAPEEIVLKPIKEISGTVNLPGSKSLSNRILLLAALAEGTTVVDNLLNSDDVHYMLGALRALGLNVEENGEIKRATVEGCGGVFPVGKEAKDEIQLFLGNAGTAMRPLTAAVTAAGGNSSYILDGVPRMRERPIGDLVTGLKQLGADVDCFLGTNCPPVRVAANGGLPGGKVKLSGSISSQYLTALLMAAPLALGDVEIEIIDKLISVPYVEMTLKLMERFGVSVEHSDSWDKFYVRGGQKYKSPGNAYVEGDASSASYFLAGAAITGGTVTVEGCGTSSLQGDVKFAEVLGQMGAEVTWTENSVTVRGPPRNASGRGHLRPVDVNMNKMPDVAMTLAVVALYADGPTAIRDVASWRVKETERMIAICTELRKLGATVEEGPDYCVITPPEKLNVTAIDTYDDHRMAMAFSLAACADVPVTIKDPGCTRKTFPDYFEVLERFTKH
Assay: EPSPS substrate saturation kinetics, native sunflower
Type: biochemical
Experimental: EPSPS activity was determined by quantifying the phosphate generated from the EPSPS reaction. Release of inorganic phosphate was coupled to reaction with 2-amino-6-mercapto-7-methylpurine ribonucleoside, catalyzed by purine-nucleoside phosphorylase (M R Webb, Proc. Natl. Acad. Sci. 89:4884-4887, 1992). The absorbance change that occurs was monitored at 360 nm, where the extinction is 11,200 M^−1 cm^−1, with a Spectramax plate reader (Molecular Devices). To determine kinetic parameters, the varied substrate was present at seven concentrations (the eighth being the blank, containing no substrate) ranging from 4 to 400 uM and the unvaried substrate present at saturation. Six microliters of 50-fold concentrated stock solutions of the varied substrate were placed in the wells of the 96-well assay plate and reactions were started with the addition of a mixture containing 25 mM Hepes, pH 7, 100 mM KCl, 0.3 mM 2-amino-6-mercapto-7-methylpurine ribonucleosde, 1 uM (1 unit/ml) purine-nucleoside phosphorylase (Sigma N8264) and 200 uM of the non-varied substrate. Reactions were monitored with a Spectramax plate reader. The Michaelis-Menten kinetics protocol of the Spectramax software was customized for the substrate concentrations used. The software returns values of KM and Vmax using the Lineweaver-Burke transformation of the Michaelis-Menten equation. To determine kcat, Vmax (uM/min) was divided by the enzyme concentration (uM). […] KI was then calculated from the following form of the Michaelis-Menten equation for competitive inhibition: KI=KM[I]/(KM app−KM) KM approximates the dissociation constant of the enzyme-substrate complex while kcat is the rate of conversion of substrate to product when the substrate concentration is saturating. kcat/KM is a widely accepted parameter for catalytic efficiency when substrate concentration is low (˜KM). […] The parameter kcat/KM×KI is used to quantify both catalytic efficiency and insensitivity and thus the overall fitness of the enzyme.
Native EPSPS amino acid sequences of rice (Oryza sativa) (SEQ ID NO:7), sorghum (Sorghum halepense) (SEQ ID NO:8), and sunflower (Helianthus annus) (SEQ ID NO:9) including the chloroplast transit peptide sequences were assembled and analyzed for mapping the corresponding amino acid mutations from the maize 868-H6. If complete EPSPS sequences were not available, appropriate adjustments were made based on sequence alignments and conserved residue mapping.
There is no complete sequence available for Helianthus annuus. […]
ChloroP Prediction Server (Emanuelsson, O. et al. 1999. Protein Sci. 8(5):978-84) was used to approximate the amino terminus of the mature EPSPS proteins. […] The synthetic genes were cloned into a plasmid vector and expressed, purified and analyzed as described in Example 1.

Compound	kcat (PEP varied)	Km (read-out: KM (PEP), PEP varied)	Ki	(kcat/KM)*KI (PEP as substrate, glyphosate as inhibitor)
C=C(OP(=O)(O)O)C(=O)O [PEP, phosphoenolpyruvate]	29.52 s⁻¹	18.8 µM		
O=C(O)CNCP(=O)(O)O [glyphosate, N-phosphonomethylglycine]			150 nM	14
